Read-outs that look alike come from different tables or passages of the source.
Tests used:
CDK4/cyclin D1 = CDK4/cyclin D1 (Homo sapiens (Human), UniProt P11802); assay: CDK4/cyclin D1 enzymatic activity assay (TR-FRET, phosphorylation of pRb at Ser780); type: biochemical; conditions: 0.3 nM CDK4/cyclin D1, 150 nM biotin-pRb (773-924), 3 μM ATP, 60 min at 22° C.; read-out: Biochemical CDK4 enzyme IC50
Method: CDK4/Cyclin D1 Enzymatic Activity Assay
An assay for monitoring CDK4/cyclin D1-catalyzed phosphorylation of pRb at the Ser780 site was performed using TR-FRET in a 384-well format, and was used for IC50 determination and kinetic analysis. […] 3 μM ATP was added last to initiate the reaction. The reaction was quenched with 10 μL of 240 mM EDTA-Na (pH 8.0) after 60 min incubation at 22° C.
Human CDK4/cyclin D1 was expressed in Sf21 cells via baculovirus infection.

[1] = system: phosphorylation of pRb at the Ser780 site in JeKo-1 mantle cell lymphoma cells; assay: CDK4 cellular assay: ELISA of pRb phosphorylation at Ser780 in JeKo-1 cells; type: cell-based; conditions: Homo sapiens
Description: Cell-based assay measuring phosphorylation levels of pRb at the Ser780 site using an enzyme-linked immunosorbent assay (ELISA) method (Table 6). JeKo-1, a mantle-cell lymphoma cell line, was selected for use in this assay due to its known translocation and subsequent overexpression of cyclin D1. [Ref: Amin, H. M.; McDonnell, T. J.; Medeiros, L. J.; Rassidakis, G. Z.; Leventaki, V.; O'Connor, S. L.; Keating, M. J.; Lai, R. Characterization of 4 mantle cell lymphoma cell lines—Establishment of an in vitro study model. Arch. Pathol. Lab.
Cells were allowed to adhere overnight. […] 10 μL of the dilution were then transferred to the cell culture plate, resulting in a final concentration range of 10 μM to 2 nM. The incubation was carried out at 37° C. with 5% CO2. All compounds were tested in triplicates at each concentration. […] The plates were placed at 4° C. with vigorous shaking for 5 min to lyse the cells. The resulting lysates contained approximately 1 μg/μL of protein.
Plates were incubated overnight at 4° C. with rocking. […] After shaking for 10 minutes, the Superblock solution was replaced with fresh Superblock and plates were incubated on a shaker for an additional 50 min. After blocking, 30 μL of JeKo-1 cell lysate, containing approximately 10 μg total protein, were added to wells in triplicate. […] For all incubation steps, plates were covered with Uniseal plate sealers. […] Next, 50 μL of a 1:2500 dilution of donkey-anti-rabbit HRP (Promega catalog no. W401B) in PBS/10% Superblock were added, and plates were incubated for 30 min at room temperature on a shaker. Plates were again washed as described above. […] After incubation, 50 μL 2 M sulfuric acid were added to plates to top the reaction, and absorbance was determined on a SpectraMax (Molecular Devices, Sunnydale, Calif.) within 15 minutes at 450 nm. All washes were performed using a Bio-Tek plate washer.
The Total Rb ELISA kit (Invitrogen catalog no. KH00011) was used to determine the levels of total pRb. This kit uses wells precoated with a proprietary total pRb antibody for capture. All reagents listed, with the exception of cell lysate, were included in the kit. The nature of the antibodies used for capture and detection was labeled as proprietary and not disclosed. 10 μg of cell lysate was loaded into the wells and volume adjusted to 50 μL with standard dilution buffer. Plates were sealed with film included in the kit and incubated for 2 h at room temperature on a shaker. Plates are then manually washed three times with 250 μL wash buffer. 50 μL of proprietary primary antibody (pre-conjugated to biotin) was added to wells and incubated for 1 h at room temperature on a shaker. Then plates were again washed as noted above. The secondary antibody (HRP pre-conjugated to Streptavidin) was diluted 1:100 in Streptavidin-HRP diluent buffer and 50 μL was added to each well. Plates were then incubated for 30 min. Afterwards, plates were washed four times with buffer as outlined above. Finally, 50 μL stabilized Chromogen was added per well and plates were incubated for 15 min, at which point 50 μL of stop solution was added. Plates were then read on a Spectramax at 450 nm.
The total pRb levels were then used to adjust the p-pRb % inhibition values to account for any loss of signal due to the absence of the pRb protein itself, and the IC50 values obtained from the adjusted % inhibitions represent normalized cellular p-pRb IC50.

CDK1/cyclin B = CDK1/cyclin B (Homo sapiens (Human), UniProt P06493); assay: CDK1/cyclin B enzymatic activity assay (IMAP-FP); type: biochemical; conditions: 100 nM Tamra Histone-H1 peptide, 20 μM ATP, 120 min at room temperature, read-out: Biochemical CDK1 enzyme IC50
Chain of CDK1/cyclin B (P06493 whole entry, species assumed): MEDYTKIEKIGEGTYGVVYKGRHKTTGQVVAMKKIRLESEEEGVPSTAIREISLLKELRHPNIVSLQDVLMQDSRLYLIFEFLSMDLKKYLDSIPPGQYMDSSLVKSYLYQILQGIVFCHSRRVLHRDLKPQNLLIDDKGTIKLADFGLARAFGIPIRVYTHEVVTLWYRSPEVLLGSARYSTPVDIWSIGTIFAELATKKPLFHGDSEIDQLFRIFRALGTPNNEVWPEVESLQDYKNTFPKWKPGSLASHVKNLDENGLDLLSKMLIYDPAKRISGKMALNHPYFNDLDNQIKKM
Chain of CDK1/cyclin B (P14635 whole entry partner, species assumed): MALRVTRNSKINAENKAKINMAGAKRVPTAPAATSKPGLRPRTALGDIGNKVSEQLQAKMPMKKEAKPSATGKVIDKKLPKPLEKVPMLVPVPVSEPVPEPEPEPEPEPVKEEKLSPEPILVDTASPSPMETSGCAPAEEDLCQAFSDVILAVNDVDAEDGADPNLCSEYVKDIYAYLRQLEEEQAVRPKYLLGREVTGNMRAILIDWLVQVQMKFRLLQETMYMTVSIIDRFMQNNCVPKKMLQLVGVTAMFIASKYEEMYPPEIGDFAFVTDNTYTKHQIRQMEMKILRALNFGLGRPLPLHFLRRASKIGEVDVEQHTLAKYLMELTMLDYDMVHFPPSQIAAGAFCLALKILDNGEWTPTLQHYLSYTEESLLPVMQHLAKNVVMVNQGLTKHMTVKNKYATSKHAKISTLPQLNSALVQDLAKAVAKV
Description: CDK1/Cyclin B Enzymatic Activity Assay
A 384-well microtiter IMAP-FP™ (Molecular Devices Trade Mark Technology) endpoint assay was used for CDK1/cyclin B kinase activity measurements. The same assay was used for IC50 determination of small molecule inhibitors.

[2] = JeKo-1, JeKo-1 cells, p-pRb % inhibition adjusted with total pRb levels, read-out: Normalized cellular ppRb inhibition IC50
[3] = JeKo-1, JeKo-1 cells, p-pRb Ser780 ELISA, non-normalized, read-out: Cellular ppRb inhibition IC50
[4] = JeKo-1, read-out: Cellular ppRb inhibition IC50
[5] = JeKo-1, read-out: Normalized cellular ppRb inhibition IC50
[6] = JeKo-1 cells, p-pRb % inhibition adjusted with total pRb levels, read-out: Normalized cellular ppRb inhibition IC50
[7] = JeKo-1 cells, p-pRb Ser780 ELISA, non-normalized, read-out: Cellular ppRb inhibition IC50

Chain of CDK4/cyclin D1 (P11802 whole entry): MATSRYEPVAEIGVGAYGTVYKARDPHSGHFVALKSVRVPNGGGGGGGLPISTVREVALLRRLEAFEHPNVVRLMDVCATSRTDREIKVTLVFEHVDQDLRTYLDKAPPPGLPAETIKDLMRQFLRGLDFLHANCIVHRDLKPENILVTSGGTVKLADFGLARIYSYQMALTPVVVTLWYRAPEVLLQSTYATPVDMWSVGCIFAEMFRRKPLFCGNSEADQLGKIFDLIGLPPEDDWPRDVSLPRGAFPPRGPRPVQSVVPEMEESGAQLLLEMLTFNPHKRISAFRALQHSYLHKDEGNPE
Chain of CDK4/cyclin D1 (P24385 whole entry partner): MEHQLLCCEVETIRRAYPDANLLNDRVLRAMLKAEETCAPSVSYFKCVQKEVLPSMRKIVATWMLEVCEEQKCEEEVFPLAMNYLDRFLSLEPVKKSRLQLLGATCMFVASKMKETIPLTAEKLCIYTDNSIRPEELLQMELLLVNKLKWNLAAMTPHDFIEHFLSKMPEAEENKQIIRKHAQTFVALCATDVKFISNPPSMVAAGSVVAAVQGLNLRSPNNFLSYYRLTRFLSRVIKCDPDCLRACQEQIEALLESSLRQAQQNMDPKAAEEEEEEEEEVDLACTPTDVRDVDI

| SMILES | IC50 (CDK4/cyclin D1) [nM] | IC50 [1, 2] [nM] | IC50 [1, 3] [nM] | IC50 (CDK1/cyclin B; […] CDK1/cyclin B) [nM] | IC50 [1, 4] [nM] | IC50 [1, 5] [nM] | IC50 (CDK1/cyclin B; 0.25 nM CDK1/cyclin B) [nM] | IC50 [1, 6] [nM] | IC50 [1, 7] [nM] |
| --- | --- | --- | --- | --- | --- | --- | --- | --- | --- |
| CN(C)C(=O)c1cc2cnc(Nc3ccc(C(=O)N4CC5CCC(C4)N5)cn3)nc2n1[C@@H]1C[C@H]2CC[C@@H]1C2 (stereo in doubt) [Example 36, 7-(1R,2R,4S)-Bicyclo[2.2.1]hept-2-yl-2-[5-(3,8-diaza-bicyclo[3.2.1]octane-3-carbonyl)-pyridin-2-ylamino]-7H-pyrrolo[2,3-d]pyrimidine-6-carboxylic acid dimethylamide] | 3 | 28 | 23 | 13000 |  |  |  |  |  |
| CN(C)C(=O)c1cc2cnc(Nc3ccc(N4C[C@H]5CNC[C@H]5CC4=O)cn3)nc2n1C1CCCCCC1 (stereo in doubt) [Example 88, 7-cycloheptyl-N,N-dimethyl-2-(5-(cis-6-oxotetrahydro-1H-pyrrolo[3,4-c]pyridin-5(6H, 7H, 7a H)-yl)pyridin-2-ylamino)-7H-pyrrolo[2,3-d]pyrimidine-6-carboxamide] | 5 | 11 | 7 | 2510 |  |  |  |  |  |
| CN(C)C(=O)c1cc2cnc(Nc3ccc(N4C[C@@H]5CNC[C@@H]5CC4=O)cn3)nc2n1C1CCCCCC1 (stereo in doubt) [Example 89, 7-cycloheptyl-N,N-dimethyl-2-(5-(cis-6-oxotetrahydro-1H-pyrrolo[3,4-c]pyridin-5(6H,7H,7aH)-yl)pyridin-2-ylamino)-7H-pyrrolo[2,3-d]pyrimidine-6-carboxamide] | 3 | 4 to 15 | 5 to 7 | 6480 |  |  |  |  |  |
| CN(C)C(=O)c1cc2cnc(Nc3ccc(N4C[C@H]5CNC[C@H]5CC4=O)cn3)nc2n1C1CCCC1 (stereo in doubt) [Example 91, 7-cyclopentyl-N,N-dimethyl-2-(5-(cis-6-oxotetrahydro-1H-pyrrolo[3,4-c]pyridin-5(6H,7H,7aH)-yl)pyridin-2-ylamino)-7H-pyrrolo[2,3-d]pyrimidine-6-carboxamide] | 5 to 7 |  |  |  | 10 to 27 | 22 to 74 | 13300 to 14900 |  |  |
| CN(C)C(=O)c1cc2cnc(Nc3ccc(N4C[C@@H]5CNC[C@@H]5CC4=O)cn3)nc2n1C1CCCC1 (stereo in doubt) [Example 92, 7-cyclopentyl-N,N-dimethyl-2-(5-(cis-6-oxotetrahydro-1H-pyrrolo[3,4-c]pyridin-5(6H,7H,7aH)-yl)pyridin-2-ylamino)-7H-pyrrolo[2,3-d]pyrimidine-6-carboxamide] | 5 to 7 |  |  | 25100 | 5 to 20 | 19 to 38 |  |  |  |
| CN1C[C@@H]2CN(c3ccc(Nc4ncc5cc(C(=O)N(C)C)n(C6CCCC6)c5n4)nc3)C(=O)[C@@H]2C1 (stereo in doubt) [Example 95, 7-cyclopentyl-N,N-dimethyl-2-(5-((3aR,6aS)-5-methyl-1-oxohexahydropyrrolo[3,4-c]pyrrol-2(1H)-yl)pyridin-2-ylamino)-7H-pyrrolo[2,3-d]pyrimidine-6-carboxamide] | 7 | 21 to 65 | 4 to 20 |  |  |  | 14000 to 14300 |  |  |
| CN(C)C(=O)c1cc2cnc(Nc3ccc(C(=O)N4C[C@H]5CNC[C@@H](C4)C5O)cn3)nc2n1C1CCCC1 (stereo partly drawn) [Example 1, 7-Cyclopentyl-2-(5-((1R,5S)-9-hydroxy-3,7-diazabicyclo[3.3.1]nonane-3-carbonyl)pyridin-2-ylamino)-N,N-dimethyl-7H-pyrrolo[2,3-d]pyrimidine-6-carboxamide] | 17 |  |  | > 15000 |  |  |  | 538 | 364 |
| CN(C)C(=O)c1cc2cnc(Nc3ccc(C(=O)N4C[C@H]5CNC[C@@H](C4)C5O)cn3)nc2n1C1CCCCCC1 (stereo partly drawn) [Example 2, 7-cycloheptyl-2-(5-((1R,5S)-9-hydroxy-3,7-diazabicyclo[3.3.1]nonane-3-carbonyl)pyridin-2-ylamino)-N,N-dimethyl-7H-pyrrolo[2,3-d]pyrimidine-6-carboxamide] | 5 | 84 | 66 | > 15000 |  |  |  |  |  |
| CN(C)C(=O)c1cc2cnc(Nc3ccc(C(=O)N4CC5CC4CN5)cn3)nc2n1C1CCCCCC1 (stereo not shown) [Example 3, 7-Cycloheptyl-2-[5-(2,5-diaza-bicyclo[2.2.1]heptane-2-carbonyl)-pyridin-2-ylamino]-7H-pyrrolo[2,3-d]pyrimidine-6-carboxylic acid dimethylamide] | 1 |  |  |  |  |  | 4200 to 5140 | 29 to 33 | 19 to 26 |
| CN(C)C(=O)c1cc2cnc(Nc3ccc(C(=O)N4CC5CCC(C4)N5)cn3)nc2n1C1CCCCCC1 [Example 4, 2-(5-(3,8-diazabicyclo[3.2.1]octane-3-carbonyl)pyridin-2-ylamino)-7-cycloheptyl-N,N-dimethyl-7H-pyrrolo[2,3-d]pyrimidine-6-carboxamide] | 4 | 10 | 9 | 7060 |  |  |  |  |  |
| CN(C)C(=O)c1cc2cnc(Nc3ccc(C(=O)N4CCC5(CC4)CNC5)cn3)nc2n1C1CCCCCC1 [Example 5, 2-(5-(2,7-diazaspiro[3.5]nonane-7-carbonyl)pyridin-2-ylamino)-7-cycloheptyl-N,N-dimethyl-7H-pyrrolo[2,3-d]pyrimidine-6-carboxamide] | 8 to 16 |  |  | > 15000 |  |  |  | 117 | 115 |
| CN(C)C(=O)c1cc2cnc(Nc3ccc(C(=O)N4CC5CCC(C4)C5(C)O)cn3)nc2n1C1CCCCCC1 (stereo not shown) [Example 6, 7-cycloheptyl-2-(5-(8-hydroxy-8-methyl-3-azabicyclo[3.2.1]octane-3-carbonyl)pyridin-2-ylamino)-N,N-dimethyl-7H-pyrrolo[2,3-d]pyrimidine-6-carboxamide] | 187 |  |  | > 15000 |  |  |  | 889 | 148 |
| CN(C)C(=O)c1cc2cnc(Nc3ccc(C(=O)N4CC5CCC4C5O)cn3)nc2n1C1CCCCCC1 [Example 7, 7-cycloheptyl-2-(5-((1R,4R,7R)-7-hydroxy-2-azabicyclo[2.2.1]heptane-2-carbonyl)pyridin-2-ylamino)-N,N-dimethyl-7H-pyrrolo[2,3-d]pyrimidine-6-carboxamide] | 21 |  |  | 17600 |  |  |  | 288 | 127 |
